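Interpolation was linear, between the two tested concentrations surrounding the appropriate level; five concentrations were tested over 48 hours in 96-well plates. Abbreviation: GI50, concentration required for 50% inhibition of growth. The concentration for full growth arrest is given as TGI.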 Some results are limits rather than exact numbers.

Holding throughout (experiment): growth of human tumour cells (NCI), 48 h
In assay [1] the test system is NCI/ADR-RES ovarian.
Assay [2] has as its system DU-145 prostate.
In assay [3] the test system is OVCAR-4 ovarian.
Assay [4] concerns MDA-MB-231 breast.
Assay [5] has as its system SN12C renal.
For assay [6], the system named is SF-268 CNS.
For assay [7], the system named is UACC-62 melanoma.
In assay [8] the test system is MCF7 breast.
Assay [9] has as its system HOP-62 NSCLC.
Assay [10] relates to SNB-19 CNS.

Consider `O=C(O)c1n[nH]nc1Cl`, for which the TGI in assay [1], in assay [2], in [3], in assay [4], in assay [5] and in assay [6] was above 100 µM throughout. In addition, the TGI in assay [7], in assay [8] and in assay [9] was above 100 µM throughout.

Consider `O=[N+]([O-])c1cc2oc(COc3ccccc3)nc2cc1Cl`, for which the TGI in assay [1] was 61.2 µM; in assay [2], above 100 µM; in assay [3], above 100 µM; in assay [4], 69.4 µM; in [5] it was 65.1 µM; in assay [6], above 100 µM. Moreover, the TGI was 41.4 µM in assay [7], above 100 µM in assay [8], above 100 µM in [10] and 50.6 µM in assay [9].

Regarding `CC(C)(C)c1cc(C(P(=O)(c2ccccc2)c2ccccc2)P(=O)(c2ccccc2)c2ccccc2)cc(C(C)(C)C)c1O`, the TGI is 6.16 µM in assay [1]; above 10 µM in assay [2]; above 10 µM in [3]; 5.12 µM in [4]; above 9.06 µM in assay [5]; above 9.47 µM in assay [6]. In addition, the TGI is 3.32 µM in assay [7], above 8.8 µM in assay [8], above 10 µM in assay [10] and 5.13 µM in assay [9].

For `NC(=O)C(N)Cc1ccc(O)cn1` (stereo unspecified), the TGI in assay [1], in assay [2], in assay [3], in assay [4], in [5] and in assay [6] was above 100 µM each time. Further, the TGI in assay [8], in assay [10] and in assay [9] was above 100 µM throughout.

In the case of `CC(C)(C)C(=O)OCC1CCC[N+]2(C)CCCCC12` (stereo unspecified), the TGI in assay [1], in [2], in [3], in assay [4], in assay [5] and in assay [6] was above 100 µM in each case. For the same compound, the TGI in [7], in assay [8], in assay [10] and in [9] was above 100 µM throughout.

`Oc1ccc2ccccc2c1/C=C/c1ccc2c(Br)cc(Br)c(O)c2n1`: the TGI in assay [1] turned out to be 12.9 µM; in [2] it was 25.7 µM; in assay [3] it was 33.4 µM; in assay [4] it was 23.4 µM; in assay [5], 20.9 µM; in assay [6] it was 21.8 µM. For the same compound, the TGI in [7] was determined as 24.2 µM; in [8], 14.5 µM; in assay [10] it was 25.1 µM; in assay [9], 34.5 µM.

Regarding `C[N+](C)([O-])CCC=C1c2ccccc2CCc2ccccc21`, the TGI in [1] turned out to be 69.3 µM; in assay [2] it was 70.9 µM; in assay [3] it was 97 µM; in [4] it was 68 µM; in [5], 62.9 µM; in [6], 54.6 µM. The TGI in assay [7] is 41.2 µM; in [8], 48.2 µM; in assay [10], above 100 µM; in assay [9], 34.9 µM.

On to `CS(=O)(=O)Nc1ccc(N2Cc3cnc4ccc5[nH]ccc2c5c34)cc1`, for which the TGI in assay [1] is above 100 µM; in assay [2], 40.9 µM; in [3], 46.6 µM; in assay [4] it was 37.5 µM; in assay [5], 35 µM; in assay [7], 35.9 µM. Moreover, the TGI is above 100 µM in [8], 42 µM in [10] and 59.2 µM in [9].

For the compound `COc1ccc(C2CC(=O)CC(c3ccc(OC)cc3)C23C(=O)NC(=O)NC3=O)cc1` (stereo unspecified), the TGI in assay [1] is above 100 µM; in [2], above 100 µM; in [3], above 100 µM; in [4], 85 µM; in [5] it was 97.9 µM; in assay [6], above 100 µM. The TGI in [7] is above 100 µM; in [8] it was above 100 µM; in assay [10] it was above 100 µM; in assay [9], 82.2 µM.

For `CN(c1ccc(Cl)cc1)S(=O)(=O)c1cccc([N+](=O)[O-])c1`, the TGI in assay [1], in assay [2], in assay [3], in assay [4], in assay [5] and in assay [6] was above 100 µM throughout. In addition, the TGI in assay [7], in assay [8], in assay [10] and in assay [9] was above 100 µM throughout.

Turning to `Cc1ccc(S(=O)(=O)N/N=C/C(=C/c2ccc(Cl)cc2)CC(/C=N/NS(=O)(=O)c2ccc(C)cc2)=C\c2ccc(Cl)cc2)cc1`, the TGI in assay [1] was 94.3 µM; in [2], above 100 µM; in assay [3], 24.8 µM; in assay [4], 24.8 µM; in assay [5], 35 µM; in assay [6] it was 55.2 µM. Moreover, the TGI in assay [7] is 27.4 µM; in assay [8], 12.6 µM; in assay [10] it was above 100 µM; in assay [9] it was 70.8 µM.

On to `Cc1cc(C)c(S(=O)(=O)N2CCCN(S(=O)(=O)c3c(C)cc(C)cc3C)OCCCON(S(=O)(=O)c3c(C)cc(C)cc3C)CCCN(S(=O)(=O)c3c(C)cc(C)cc3C)OCCCO2)c(C)c1`, for which the TGI in [1], in assay [2], in [3], in assay [4], in assay [6] and in assay [7] was above 100 µM throughout. The TGI in assay [8], in assay [10] and in [9] was above 100 µM throughout.

On to `Cc1cccc(-c2nc3ccc([N+](=O)[O-])cc3c(=O)o2)c1`, for which the TGI in assay [1], in assay [2], in [3], in assay [4], in assay [5] and in assay [6] was above 100 µM in each case. Besides, the TGI in [7], in assay [8] and in assay [9] was above 100 µM throughout.

In the case of `CCOC(=O)C1=CC(C)(C(=O)OCC)Nc2c(nc(OC)n(C)c2=O)N1` (stereo unspecified), the TGI in assay [1], in [2], in assay [3], in [4], in assay [5] and in [6] was above 10 µM throughout. Besides, the TGI in [8], in assay [10] and in assay [9] was above 10 µM throughout.

`CC(=O)OCc1cc(CCC(=O)NCCNc2c3ccccc3nc3ccccc23)cc(COC(C)=O)c1O[Si](C)(C)C(C)(C)C`: the TGI in assay [1] is 45.9 µM; in [2], 28.1 µM; in assay [3] it was 21.1 µM; in [4], 11.6 µM; in assay [5], 3.38 µM; in assay [7] it was 19.5 µM. For the same compound, the TGI in assay [8] came to 4.57 µM; in [10] it was 31.2 µM; in assay [9] it was 32.5 µM.

`O=C1OC[C@@H]2Cc3cc4c(cc3[C@H](c3ccc5c(c3)OCO5)[C@@H]12)OCO4`: the TGI in assay [1], in [2], in [3], in assay [4], in assay [5] and in assay [8] was above 25 µM in each case. Moreover, the TGI in [10] and in assay [9] was above 25 µM in each case.

With `Cc1nc(N)sc1-c1ccnc(Nc2ccc(N3CCOCC3)cc2)n1`, the GI50 was 3.43 µM in assay [1]; 2.99 µM in [2]; above 21.7 µM in assay [3]; 3.1 µM in assay [4]; 2.24 µM in assay [5]; 1.54 µM in assay [6]. The GI50 in assay [8] was 1.43 µM; in assay [10], above 49.5 µM; in [9] it was 1.87 µM. Further, the TGI in assay [1] was above 100 µM; in assay [2] it was above 100 µM; in assay [3], above 100 µM; in assay [4], above 100 µM; in [5], above 100 µM; in assay [6], 50.7 µM. Besides, the TGI in assay [8] was above 100 µM; in assay [10], above 100 µM; in [9], 60.3 µM.

`Cc1nc2ccccc2c(=O)n1NC(=O)c1ccc(CS)cc1`: the TGI is above 100 µM in [1]; 88.2 µM in assay [2]; above 100 µM in [3]; 84.6 µM in [4]; 70.8 µM in [5]; 52 µM in assay [6]. Further, the results for the TGI in assay [8], in [10] and in [9] were 26.2 µM, above 100 µM and 42.4 µM, respectively.

As to `CC(=O)c1c2c(cc3c1CC1(Cc4ccccc4C1=O)C3)CCC2` (stereo unspecified), the TGI in assay [1] was 53.3 µM; in [2], above 100 µM; in assay [3], above 100 µM; in assay [4] it was 93.4 µM; in assay [5] it was above 100 µM; in assay [6] it was above 100 µM. The TGI in assay [8] was 44.3 µM; in assay [10], above 100 µM; in assay [9] it was above 100 µM.

As for `CC1=C(C#N)C(C#N)(C#N)C(NN(C)C)C1` (stereo unspecified), the TGI in assay [1] is above 100 µM; in [2], 33.8 µM; in assay [3], above 100 µM; in [4], 28.4 µM; in assay [5], 27.3 µM; in [6] it was 78.7 µM. Further, the values for the TGI in assay [7], in assay [8] and in [9] were 61.6 µM, 77.3 µM and 30.4 µM, respectively.

The values are drawn from PubChem BioAssay (NCI).
